Values quoted from earlier work as cited in patent publication US11459499B2, “Amidoamine-based gemini surfactant containing ethoxylate units and a method for oil recovery” (King Fahd University of Petroleum and Minerals, priority 2018, dated 2022).
Like-named read-outs stand apart in the source and are kept apart here.

| SMILES | reported CMC (literature (Hoque et al., 2012)) [mM] | reported CMC (literature (Lu et al., 2012)) |
| --- | --- | --- |
| CCCCCCCCCCCC[N+](C)(C)C.[Br-] [DTAB, dodecyltrimethylammonium bromide] | 16.1 | 5.0×10^−1 wt. % |
| CCCCCCCCCCCC[N+](C)(C)CC[N+](C)(C)CCCCCCCCCCCC.[Br-].[Br-] [12-2-12] |  | about 5.5×10^−2 wt. % |
